Measured values taken from PubChem BioAssay AID398.

Biological target: 11-beta-hydroxysteroid dehydrogenase 1 (Homo sapiens) (UniProt P28845)
Assay: HSD11B1 binders by thermal stabilization, biophysical, DSF, SYPRO orange, purified protein (AID 398)
Settings: protein 3 µM, buffer 10 mM HEPES, pH 7.5, NaCl 150 mM, stronger effect = higher value

Sequence of 11-beta-hydroxysteroid dehydrogenase 1 (Homo sapiens) (P28845 whole entry, looked up): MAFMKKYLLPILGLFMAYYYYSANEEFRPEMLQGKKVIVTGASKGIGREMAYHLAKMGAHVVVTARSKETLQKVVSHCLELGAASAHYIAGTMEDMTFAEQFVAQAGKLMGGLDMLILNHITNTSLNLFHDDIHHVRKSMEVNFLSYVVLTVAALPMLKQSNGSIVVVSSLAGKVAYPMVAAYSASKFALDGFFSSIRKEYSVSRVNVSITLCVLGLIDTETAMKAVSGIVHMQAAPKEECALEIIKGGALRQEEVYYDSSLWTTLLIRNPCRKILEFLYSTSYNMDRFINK

Tm shift (at 10 µM, NADP 100 µM) [Celsius] | Tm shift (at 40 µM) [Celsius] | Tm shift (measured here: second DSF experiment, at 40 µM, run 2, at 40 µM) [Celsius] | Compound
2.7 | – | – | CC(C)(COP(=O)(O)OP(=O)(O)OCC1OC(n2cnc3c(N)ncnc32)C(O)C1OP(=O)(O)O)C(O)C(=O)NCCC(=O)NCCSC(=O)CCC(=O)O (stereo unspecified)
– | 5.7 | 2.6 | NC(=O)c1ccc[n+](C2OC(COP(=O)(O)OP(=O)(O)OCC3OC(n4cnc5c(N)ncnc54)C(OP(=O)(O)O)C3O)C(O)C2O)c1 (stereo unspecified)
3.6 | – | – | CC(C)(COP(=O)(O)OP(=O)(O)OCC1OC(n2cnc3c(N)ncnc32)C(O)C1OP(=O)(O)O)C(O)C(=O)NCCC(=O)NCCSC(=O)Cc1ccccc1 (stereo unspecified)

Further lines, the molecule ahead of its results:

Compound | Tm shift (at 10 µM, NADP 100 µM) [Celsius] | Tm shift (at 40 µM) [Celsius] | Tm shift (measured here: second DSF experiment, at 40 µM, run 2, at 40 µM) [Celsius]
COC(=O)[C@H](C)CO | 6.7 | – | –
C=CC1=C(C)/C(=C/c2[nH]c(Cc3[nH]c(/C=C4\NC(=O)C(C)=C4C=C)c(C)c3CCC(=O)O)c(CCC(=O)O)c2C)NC1=O | 3.9 | – | –
